Laboratory results reported in PMC6214985, “Potassium usnate, a water-soluble usnic acid salt, shows enhanced bioavailability and inhibits invasion and metastasis in colorectal cancer” (Scientific Reports, 2018).
Where “and” joins values, the source holds several entries; their conditions need not be identical. Equal entries are not always repeated.

Experiments:
[1] = tested on: N-cadherin, Snail, Twist, Slug, and ZEB2 mRNA in Caco2 cells; assay: qRT-PCR of EMT markers in Caco2 cells; assay type: cell-based, human; conditions: 5 μM
Procedure: Quantitative RT-PCR (qRT-PCR) was performed as previously described. Briefly, total RNA ([…]) isolated from UA- or KU-treated Caco2 cells using RNAiso Plus (TaKaRa, Otsu, Shiga 520–2193, Japan) was used to synthesize cDNA using a M-MLV reverse transcriptase kit (Invitrogen, Carlsbad, CA, USA) and SYBR green (Enzynomics, Seoul, Korea). The primers used for real-time PCR were as follows: E-cadherin (forward) 5′-[…]-3′ and (reverse) 5′-[…]-3′; N-cadherin (forward) 5′-[…]-3′ and (reverse) 5′-[…]-3′; Snail (forward) 5′-[…]-3′ and (reverse) 5′-tgggagacacatcggtcga-3′; Twist (forward) 5′-cgggagtccgcagtctta-3′ and (reverse) 5′-[…]-3′; Slug (forward) 5′-[…]-3′ and (reverse) 5′-[…]-3′; ZEB1(forward) 5′-atgacacaggaaaggaagg-3′ and (reverse) 5′-agcagtgtcttgttgtag-3′; ZEB2 (forward) 5′-caagaggcgcaaacaagcc-3′ and (reverse) 5′-[…]-3′; CAPN1 (forward) 5′-[…]-3′ and (reverse) 5′-[…]-3′; CDC42 (forward) 5′-[…]-3′ and (reverse) 5′-[…]-3′; CFL1 (forward) 5′-caaggatgccatcaagaa-3′ and (reverse) 5′-atccttagcctcctcgta-3′; IGF1 (forward) 5′-[…]-3′ and (reverse) 5′-[…]-3′; WASF1 (forward) 5′-[…]-3′ and (reverse) 5′-[…]-3′; WASL (forward) 5′-[…]-3′ and (reverse) 5′-[…]-3′; and GAPDH (forward) 5′-[…]-3′ and (reverse) 5′-[…]-3′. qRT-PCR reactions and analyses were performed using CFX (Bio-Rad, Hercules, CA, USA).

[2] = Water solubility by μSol Method; assay type: physicochemical; conditions: 25 °C, pH 7.4, μSol Method with DMSO stock solution
[3] = Hydrolytic stability at pH 4–7; assay type: physicochemical; conditions: pH range of 4–7, room temperature
Procedure: To determine whether the salt form of UA improved its bioavailability, the amount and concentration of usnate in the tumors, liver, and plasma of CT26 syngeneic tumor xenograft-bearing mice were measured by LC-MS/MS analysis. UA or KU was administered orally at a dose of 30 mg/kg at 7 days after CT26 cell inoculation, and the tumor tissues, liver tissues, and plasma of mice were collected after 16 h. […] Assuming that the density of tumor tissue is 0.1 to 1.0 mL/g, the concentration of usnate in tumor tissue is about 1.51 to 15.1 μM. Similarly, the amounts of usnate detected in liver tissues were 0.2788 ± 0.034 nmol/g of tissue for UA and 2.5789 ± 0.402 nmol/g of tissue for KU administered mice (Fig. 2C); the plasma concentrations of usnate were 0.181 ± 0.016 μM for UA and 1.690 ± 0.122 μM for KU administered mice (Fig. 2D).
Supplementary Figure 3. The stability of UA at the pH range of 4–7 in room temperature. (A) UA stability at pH 7.0. (B) UA stability at pH 6.8. (A) UA stability at pH 6.0. (A) UA stability at pH 4.5

[4] = tested on: Caco2, HCT116, and CT26 cells; assay: Cell invasion assay (Boyden chamber); assay type: cell-based, human; mouse (CT26); conditions: 5 μM, 24 h, vs control
Procedure: Invasion assays were performed in Boyden chambers (Corning, New York, USA)[16]. A 120 μL Cells (2 × 10^6) suspended in medium (DMEM containing 0.2% BSA dissolved in PBS) treated with or without UA or KU were seeded in the upper transwell chamber (Corning, New York, USA) coated with gelatin. Then, fibronectin (10 μg/mL) was added into the lower chamber medium (400 μL) as a chemotactic agent.Then invaded cells adhering to the underneath of upper chamber were fixed and stained with the Diff Quik kit (Sysmex) after 24 h of incubation. The quantitation of the cells were performed under an upright microscope (5 fields/chamber). Each invasion assay was repeated in three independent experiments.

[5] = Usnate distribution by LC-MS/MS after oral administration in CT26 syngeneic mouse tumor xenograft model; assay type: in vivo; conditions: 30 mg/kg oral, 16 h after dosing; CT26 xenograft mice
Procedure: Stock solutions (10 mM) of UA or KU were prepared by dissolution in DMSO. Stock standard solutions were stored at −20 °C. A working standard solution was prepared by dilution of the stock standard solution with a mixture of acetonitrile-water (1:1, v/v). The working standard solution was serially diluted to prepare a concentration series of 0.975, 3.9, 15.6, 62.5, 250, 1000, and 4000 nM in 50% acetonitrile.
Skin tumor xenografts were established using CT26 cells. After 7 days of inoculation and gross tumor formation, UA or KU at 30 mg/kg was administered orally, and tumor, liver, and plasma samples were collected after 16 h (n = 9 each). Mouse tumor and liver samples were homogenized in four volumes of ice-cold deionized water. Plasma and homogenized tissue samples were prepared for analysis in a 96-well cluster tube plate by protein precipitation. A volume of 30 µL of each sample was transferred to eight-well tube strips placed in an 8 × 12 rack (VWR, Emeryville, CA, USA). Four volumes of ice-cold extraction solution (acetonitrile) containing 4-methylumbelliferone (4-MUF, internal standard) were added and vortexed for 10 min. After sonication for 30 min, samples were placed on ice for 1 h. The 96-well cluster tube plate was centrifuged at 1000 × g for 10 min, and the supernatant was analyzed by LC-MS/MS. Standard samples were prepared in the same manner using a blank matrix.
Samples were analyzed with the Prominence UPLC system (Shimadzu, Japan) equipped with an API 3200 QTRAP™ LC-MS/MS system (Applied Biosystems, Foster City, CA, USA). Sample volumes of 10 μL were injected into an Aquity HSS UPLC C18 column (2.5 × 100 mm, 1.8 µm i.d.; Waters, Milford, MA, USA) and maintained at 30 °C. The column was pre-equilibrated in 100% v/v solvent A (deionized water containing 0.1% v/v formic acid)/0% v/v solvent B (acetonitrile containing 0.1% v/v formic acid) at a flow rate of 0.3 mL/min. […] The samples were analyzed via multiple reaction monitoring. […]

[6] = tested on: Twist, Snail, and Slug protein in Caco2 cells; assay: Western blotting of EMT markers in Caco2 cells; assay type: cell-based, human; conditions: 24 h
Procedure: Cells treated with UA or KU for 24 h were washed twice with ice-cold PBS and lysed in lysisbuffer. Antibodies against E-cadherin (61018, BD Biosciences, San Diego, CA, USA), N-cadherin (610921, BD Biosciences), Snail/Slug (ab180714, Abcam, Cambridge, MA, USA), Twist (ab49254, Abcam), PARP (9542, Cell Signaling), Caspase-3 (9662, Cell Signaling), α-Tubulin (2125, Cell Signaling), and ZEB2 (HPA003456, Sigma) were detected with horseradish peroxidase-conjugated secondary antibody (Thermo Fisher Scientific, Waltham, MA, USA) with the use of Immobilon Western Chemiluminescent HRP Substrate Kit (Merck Millipore, Billerica, MA, USA) and luminescence imaging (Image Quant LAS 4000 mini). Multi-Gauge 3.0 was used to measure bands, and relative density was calculated based on the density of the α-tubulin bands in each sample. Expression of values were as arbitrary densitometric units corresponding to signal intensity.

[7] = tested on: CT26 cells expressing firefly luciferase (CT26-Fluc); assay: Orthotopic liver metastasis model (CT26-Fluc, intrasplenic injection); assay type: in vivo, BALB/c mice; conditions: 5 or 10 mg/kg intraperitoneal
Procedure: Five-week-old male BALB/c mice with pathogen-free condition were obtained from Orient Company (Seongnam, Korea). According to the Guiding Principles in the Care and Use of Animals (DHEW publication, NIH 80–23), the handling of animals and all in vivo experiments were performed. The Chonnam National University Medical School Research Institutional Animal Care and Use Committee approved the experimental protocol.
A syngeneic mouse model of colorectal cancer metastasis to the liver was established by infusion of tumor cells into the portal system via intrasplenic injection. […] For optical live imaging in this model, a splenectomy was performed immediately after inoculation of tumor cell, and the firefly luciferase activity was analyzed at several time points with the Xenogen system. […] Weight of tumor was determined by subtracting the average weight of liver of normal mice (n = 4) from the weight of total tumor-bearing liver with addition of the weight of total extrahepatic tumors. […] To evaluate inhibition of tumor growth, mice were analyzed every 7 days with the use of optical imaging. […] Metastatic tumor nodules in the liver with a diameter of >1.0 mm were counted using a microscope, and a metastasis score was assigned based on nodule size as follows: 0 (no gross metastasis), 1 (tumor size >1 mm), and 10 (tumor size >5 mm). […]

[8] = tested on: CAPN1, CDC42, CFL1, IGF1, WASF1, and WASL in Caco2 cells; assay: Cell motility-related gene expression (RT2 profiler PCR / qRT-PCR) in Caco2 cells; assay type: cell-based, human; conditions: same concentration for UA and KU
Procedure: The RT² Profiler™ PCR Array (330231, SA Biosciences, Qiagen, Courtaboeuf, France) was used to examine the expression patterns of 84 genes involved in human cell motility as previouslydescribed. The manufacturer’s instructions were strictly followed. Gene expression levels were analyzed using the web-based software ‘RT2 Profiler PCR Array Data Analysis version 3.5′. Six cell motility-related genes, including CAPN1, CDC42, CFL1, IGF1, WASF1, and WASL, were selected as candidates.
Quantitative RT-PCR (qRT-PCR) was performed as previously described. Briefly, total RNA ([…]) isolated from UA- or KU-treated Caco2 cells using RNAiso Plus (TaKaRa, Otsu, Shiga 520–2193, Japan) was used to synthesize cDNA using a M-MLV reverse transcriptase kit (Invitrogen, Carlsbad, CA, USA) and SYBR green (Enzynomics, Seoul, Korea). […]

[9] = tested on: colorectal cancer cells (HCT116, DLD1, SW480, HT29, SW620, Caco2, COLO320, CT26); assay: Cell viability assay (MTT); assay type: cell-based, human; mouse (CT26); conditions: 48 h, 12.5–100 μM
Procedure: The human colorectal cancer cell lines HCT116, DLD1, SW480, HT29, SW620, Caco2, and COLO320, and the mouse colorectal cancer cell line CT26, were used in this study. Cells were cultured in DMEM supplemented with 10% fetal bovine serum and 1% Penicillin-Streptomycin solution under a humidified 5% CO2 atmosphere at 37 °C in an incubator.
Colorectal cancer cell growth and survival were detected with the colorimetric quantification of 3-(4,5-dimethylthiazol-2-yl)-2,5-diphenyltetrazolium bromide using the MTT assay. Briefly, cells were seeded and cultured in 96-well plates (2.5 × 10^3 cells/well), and treated with UA or KU for 48 h. After DMSO dissolution, the absorbance at 540 nm was determined using a microplate reader with Gen 5 (2.03.1) software (BioTek Eon, VT, USA).

## Usnic acid [UA]
[1]
  mRNA levels of N-cadherin, Snail, Twist, Slug, and ZEB2: significantly decreased
[2]
  water solubility: 52.2 ± 2.90 μM and 17.7 ± 0.20 μg/mL
[3]
  hydrolytic stability: consistent
[4]
  number of invaded cells / invasion: lower in the UA-treated groups than in the control groups
[5]
  amount of usnate in liver tissues: 0.2788 ± 0.034 nmol/g of tissue
  amount of usnate in tumor tissues: undetectable
  plasma concentration of usnate: 181 ± 16 nM
[6]
  protein level of Twist, Snail, and Slug: downregulated
[7]
  inhibitory effect on metastasis in vivo: no significant inhibitory effect on metastasis
[7]; six or ten times within 2 weeks, vs control
  metastasis score: did not detect a statistically significant difference
[8]
  expression of cell motility-related genes CAPN1, CDC42, CFL1, IGF1, WASF1, and WASL: only CFL1 and IGF1 gene expression levels were decreased
[9]
  cytotoxic activity (cell viability): showed cytotoxic activity in all the tested colorectal cancer cells
